A short description of data set [1]: in vivo. To be noted: dog, iv.
A short description of data set [2]: in vivo. The settings on record: rat, iv.
The nature of data set [3]: in vivo. The settings on record: dog, iv. This is another data set of the same source.
Data set [4] in a line: in vivo. To be noted: dog, po.
Data set [5] is described as follows: in vivo. The settings on record: rat, iv. This is another data set of the same source.
Data set [6] in a line: in vivo. The settings on record: rat, po.

Molecules are shown by their SMILES.

Regarding `CN1Cc2cc(C(=O)NCc3cccc(N)n3)ccc2N[C@@H](CC(=O)O)C1=O`, the clearance worked out at 7.8 mL/min/kg in data set [1] and 63 mL/min/kg in data set [2]. Also, the figures for the half-life in data set [3] and in data set [5] were 47 min and 45 min, respectively. Further, the bioavailability in data set [4] was 10%; in data set [6], 13%.

As usually defined, the clearance is the volume of plasma or blood freed of the substance per unit of time. Read a low clearance as a low capacity for elimination. The term half-life denotes the time in which the quantity being followed falls by half. Low readings indicate fast loss, high ones slow loss. Broadly, the bioavailability is dose-corrected exposure relative to a reference, in per cent. Low values mean little systemic uptake, high ones much systemic uptake.

Values taken from ChEMBL document CHEMBL1131768, “Orally bioavailable nonpeptide vitronectin receptor antagonists containing 2-aminopyridine arginine mimetics” (Bioorg Med Chem Lett, 1999).
